Patent US8735414B2 (priority 2009, dated 2014)

Columns and labels:
[1] = test system: bicistronic HCV replicon (replicon RNA, GenBank Accession No. AJ242654); assay: HCV Replicon Assay; format: cell-based; details: Hepatitis C virus, 72 h, read-out: Replicon IC50

Row | Compound | IC50 [1] | melting point
1 | CC(C)(NS(=O)(=O)c1ccc(-c2c(C#N)c3cc(F)c(C4CC4)cc3n2C2CCCC2)nc1)C(F)(F)F [compound 831, 6-(3-cyano-1-cyclopentyl-6-cyclopropyl-5-fluoro-1H-indol-2-yl)-N-(1,1,1-trifluoro-2-methylpropan-2-yl)pyridine-3-sulfonamide] | < 500 nM | 183 to 185 °C
2 | N#Cc1c(-c2ccc(S(=O)(=O)NC(CF)CF)cn2)n(-c2ccccc2)c2ccc(Cl)cc12 [compound 112, 6-(5-chloro-3-cyano-1-phenyl-1H-indol-2-yl)-N-(1,3-difluoropropan-2-yl)pyridine-3-sulfonamide] | < 500 nM | 192 to 196 °C
3 | Cc1c(F)cc2c(C#N)c(-c3ccc(S(=O)(=O)N[C@@H](C)C(F)(F)F)cn3)n(C3CCC3)c2c1F [compound 532, 6-(3-cyano-1-cyclobutyl-5,7-difluoro-6-methyl-1H-indol-2-yl)-N-[(2S)-1,1,1-trifluoropropan-2-yl]pyridine-3-sulfonamide] | < 500 nM | 186 to 191 °C
4 | C[C@H](NS(=O)(=O)c1ccc(-c2c(C#N)c3cc(F)ccc3n2-c2ccc(C(F)(F)F)cn2)nc1)C(F)(F)F [compound 724, 6-{3-cyano-5-fluoro-1-[5-(trifluoromethyl)pyridin-2-yl]-1H-indol-2-yl}-N-[(2S)-1,1,1-trifluoropropan-2-yl]pyridine-3-sulfonamide] | 500 to 2000 nM | 216 to 218 °C
5 | CCc1cc2c(cc1F)c(C#N)c(-c1ccc(S(=O)(=O)N[C@@H](C)C(F)(F)F)cn1)n2-c1cccc(OC)c1 [compound 1010, 6-[3-cyano-6-ethyl-5-fluoro-1-(3-methoxyphenyl)-1H-indol-2-yl]-N-[(2S)-1,1,1-trifluoropropan-2-yl]pyridine-3-sulfonamide] | < 500 nM | 229 to 233 °C
6 | Cc1ccc2c(C#N)c(-c3ncc(S(=O)(=O)N[C@@H](C)C4CC4)cn3)n(CC3CC3)c2c1 [compound 203, 2-[3-cyano-1-(cyclopropylmethyl)-6-methyl-1H-indol-2-yl]-N-[(1S)-1-cyclopropylethyl]pyrimidine-5-sulfonamide] | < 500 nM | 205 to 207 °C
7 | CC(C)c1ccc2c(C#N)c(-c3ncc(S(=O)(=O)N[C@@H](C)C(F)(F)F)cn3)n(C3CCC3)c2c1 [compound 455, 2-[3-cyano-1-cyclobutyl-6-(propan-2-yl)-1H-indol-2-yl]-N-[(2S)-1,1,1-trifluoropropan-2-yl]pyrimidine-5-sulfonamide] | < 500 nM | 217 to 222 °C
8 | CC(C)(NS(=O)(=O)c1ccc(-c2c(C#N)c3c(F)cc(C4CC4)cc3n2-c2ncccn2)nc1)C(F)(F)F [compound 1098, 6-[3-cyano-6-cyclopropyl-4-fluoro-1-(pyrimidin-2-yl)-1H-indol-2-yl]-N-(1,1,1-trifluoro-2-methylpropan-2-yl)pyridine-3-sulfonamide] | 500 to 2000 nM | 198 to 200 °C
9 | C[C@H](NS(=O)(=O)c1ccc(-c2c(C#N)c3ccc(C#N)cc3n2C2CCC2)nc1)C(F)(F)F [compound 467, 6-(3,6-dicyano-1-cyclobutyl-1H-indol-2-yl)-N-[(2S)-1,1,1-trifluoropropan-2-yl]pyridine-3-sulfonamide] | < 500 nM | 223 to 225 °C
10 | Cc1ccc2c(c1)c(C#N)c(-c1ncc(S(=O)(=O)NC(C)C)cn1)n2CC1CC1 [compound 388, 2-[3-cyano-1-(cyclopropylmethyl)-5-methyl-1H-indol-2-yl]-N-(propan-2-yl)pyrimidine-5-sulfonamide] | 500 to 2000 nM | 219 to 222 °C
11 | Cc1cc2c(cc1F)c(C#N)c(-c1ccc(S(=O)(=O)N[C@@H](C)C(F)(F)F)cn1)n2-c1ccncc1F [compound 1014, 6-[3-cyano-5-fluoro-1-(3-fluoropyridin-4-yl)-6-methyl-1H-indol-2-yl]-N-[(2S)-1,1,1-trifluoropropan-2-yl]pyridine-3-sulfonamide] | < 500 nM | 204.2 to 210.5 °C
